Reference: article PMC12406253, “Exploration of the Neuromodulatory Properties of Fyn and GSK-3β Kinases Exploiting 7‑Azaindole-Based Inhibitors” (Journal of Medicinal Chemistry, 2025)

How the values were obtained:
[1] = test system: immortalized human brain endothelial cell line (hCMEC/D3); assay: BBB permeability in hCMEC/D3 transwell model; details: 100 μM apical; ± SE
Procedure: (§1) To this aim, the immortalized human brain endothelial cell line (hCMEC/D3) was used since it mimics the brain endothelium-restricted permeability and expresses most of the transporters and receptors present in vivo, constituting a valuable in vitro model of the human BBB crossing system.
(§2) BBB permeability assay was conducted as described in Albertini et al. The brain microvascular endothelial cells (hCMEC/D3) were seeded at the density of 5 × 10^4 cells per cm^2 in the upper compartment of Transwell filters (polyester, pore size 0.4 μm, 12-well tissue culture transwell; Corning), precoated with rat tail collagen type I (0.1 mg/mL; Roche). They were grown for 7 days up to confluence in Endothelial Cell Growth Medium 2 (Promocell), supplemented with penicillin/streptomycin 100 U/mL, in a humidified, 5% CO2 incubator at 37 °C. Confluent monolayers were washed in prewarmed HBSS buffer, and the selected compounds were added to the apical (AP) side at a concentration of 100 μM. […] Samples (100 μL) were collected from the BL side at different time points (15, 30, 60, and 90 min) and then replaced with the corresponding volume of HBSS buffer. […] The concentration of compounds was determined using a Ultimate 3000 HPLC system (ThermoFisher) with UV–vis detection at the maximum absorption wavelength of each compound except for inulin as determined by a spectrophotometric method using a Tecan Sunrise absorbance microplate reader. […] The permeability coefficient (Papp) was calculated as follows: Papp = (ΔQ/Δt)/(C [donor] × A), where ΔQ/Δt represents the permeation rate (mol/s), C [donor] is the initial compound concentration in the donor compartment at time 0 (mol/cm^3), and A represents the surface area of the filter (1.12 cm^2).

[2] = test system: primary rat cerebellar granule neurons (CGNs); assay: Neuroprotection in CGNs, serum/potassium deprivation (MTT); format: cell-based; details: 5, 10, and 25 μM, 48 h
From the text: First, we evaluated the neuroprotective properties of the selected compounds in the same cell line, once the expression of Fyn and GSK-3β in this cellular model was verified (Figure S2), after a serum/potassium deprivation experiment, which simulates physiological aging (and mortality), triggering around 20% of cell death. In particular, 7 days differentiated CGNs were exposed to serum-free BME medium with low extracellular concentration of K^+ ions and treated at selected doses (i.e., 5, 10, and 25 μM) of compounds for 48 h. Neuronal viability was then determined with an MTT assay.
To evaluate the neuroprotective effect of our compounds, we tested increasing concentrations (5 μM, 10 μM, 25 μM) of compounds of interest in differentiated CGNs switched to serum-free BME medium with 5 mM KCl (serum-potassium deprivation) for 48 h to mimic in vitro the naturally occurring death of granule cells. Neuroprotection was evaluated through MTT assay.
For MTT assay, thiazolyl blue was added to the culture medium at a final concentration of 0.1 mg/mL. Following a 20 min incubation at 37 °C in the dark, the MTT precipitate was dissolved in 0.1 M Tris–HCl pH 7.5 buffer containing 5% Triton X-100 (all from Sigma-Aldrich) and absorbance was read at 570 nm in a microplate spectrophotometric reader (Bio-Rad).

[3] = test system: primary rat cerebellar granule neurons (CGNs); assay: Neurotoxicity, cell viability in CGNs (MTT); format: cell-based; details: 5, 10, and 25 μM, 24 h
Procedure: A preliminary cell viability assessment was conducted in primary rat cerebellar granule neurons (CGNs), which are considered a reliable model for studying cellular and molecular mechanisms of survival/apoptosis and neurodegeneration/neuroprotection.
Primary cerebellar granule cells were dissociated from cerebella and plated on 96-well plates, previously coated with 10 μg/mL poly-L-lysine, at a density of 1.2 × 10^5 cells/0.2 mL medium/well in BME supplemented with 10% heat-inactivated FBS (Life Technologies), 2 mmol/L glutamine, 100 μmol/L gentamicin sulfate, and 25 mM KCl (all from Sigma-Aldrich). Sixteen hours later, 10 μM cytosine arabinofuranoside (Sigma-Aldrich) was added to avoid glial proliferation. After 7 days in vitro, differentiated neurons were shifted to serum-free BME medium and exposed to increasing concentrations (5 μM, 10 μM, 25 μM) of compounds of interest for 24 h. Then, cell viability was evaluated through the MTT assay.

FYNα = FYNα (Homo sapiens, UniProt P06241); assay: FYNα kinase assay, LANCE Ultra TR-FRET; format: biochemical; details: mean ± SD of at least three independent determinations; ATP near Km; read-out: Fyn IC50
Sequence of FYNα (P06241 whole entry): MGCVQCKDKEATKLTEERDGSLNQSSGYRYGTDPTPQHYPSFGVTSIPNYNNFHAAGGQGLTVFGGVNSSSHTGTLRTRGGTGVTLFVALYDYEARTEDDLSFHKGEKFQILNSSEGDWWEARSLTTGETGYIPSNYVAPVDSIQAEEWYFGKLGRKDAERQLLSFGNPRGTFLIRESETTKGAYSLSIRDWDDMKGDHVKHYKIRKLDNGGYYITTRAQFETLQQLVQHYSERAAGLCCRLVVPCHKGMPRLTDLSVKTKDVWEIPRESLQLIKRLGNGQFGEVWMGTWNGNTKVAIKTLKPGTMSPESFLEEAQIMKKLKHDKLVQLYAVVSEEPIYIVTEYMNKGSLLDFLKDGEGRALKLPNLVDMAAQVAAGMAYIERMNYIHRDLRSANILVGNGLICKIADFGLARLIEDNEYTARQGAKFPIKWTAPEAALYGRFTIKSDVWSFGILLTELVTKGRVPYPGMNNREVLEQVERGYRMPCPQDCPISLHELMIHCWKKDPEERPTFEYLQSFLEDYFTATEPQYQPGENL
Procedure: GSK-3β and FYNα kinase assays were run in 384-well microplates (OptiPlate-384, White, PerkinElmer) in a total reaction volume of 20 μL. The inhibitory potency against human recombinant GSK-3β and FYNα (Carna Biosciences) was evaluated using the LANCE Ultra (PerkinElmer) time-resolved fluorescence resonance energy transfer (TR-FRET) by measuring the phosphorylation of the ULight-labeled substrate, according to the manufacturer’s instructions. The synthetic peptide surrounding Ser641 of human muscle glycogen synthase (ULight-GS (Ser641/pSer657)) and the synthetic 28-amino acid peptide containing eight Tyr residues placed in different amino acid contexts (ULightTM-TK (PT66)) were selected as specific substrates for GSK-3β and FYNα, respectively. Briefly, test compounds and staurosporine (reference compound) or DMSO (control) are mixed with the enzyme (GSK-3β: 2 nM and FYNα: 1 nM) in a buffer containing 50 mM HEPES (pH 7.5), 1 mM EGTA, 10 mM MgCl2, 2 mM DTT, and 0.01% Tween-20. […] Following incubation, the reaction is stopped by adding 6 mM EDTA. After 5 min, the antiphospho antibody labeled with europium chelate is added. After 1 more hour, the kinase reaction is monitored by irradiation at 320 nm and the fluorescence measured at 615 and 665 nm, using EnVision 2014 Multilabel Reader (PerkinElmer). The calculated signal ratio at 665/615 nm is proportional to the extent of ULight-substrate phosphorylation. The compounds were tested at 11 different concentrations ranging from 3 nM up to 100 μM in triplicate. […] The results were expressed as a percent inhibition of the control enzyme activity.
Dose–response curves were run in at least three independent experiments, performed in three technical replicates. IC50 values (concentrations causing half-maximal enzyme inhibition) were determined by nonlinear regression analysis of the Log[concentration]/response curves generated with mean replicate values using a four parameter Hill equation curve fitting with GraphPad Prism 8 (GraphPad Software Inc., CA-USA).

[4] = test system: neurospheres (NPCs from the subventricular zone); assay: Neurosphere growth analysis (NPC proliferation); format: cell-based, mice; details: 0.1, 1, and 5 μM; 7 days
Procedure: Based on that, we further investigated the neurogenic and differentiation potential of our kinase inhibitors in cell culture of neurospheres, which are floating pools of NPCs coming from the subventricular zone (SVZ) of six-month-old mice. Particularly, we first analyzed the variation, during 7 days, in number and size of neurosphere population with and without treatment.
To investigate the effect of compounds of interest in neurospheres’ growth rate, single spheres were plated in suspension in 96-well plates (5 × 10^3 cells/well) in the presence of compounds (0.1 μM, 1 μM, and 5 μM) in complete DMEM F-12 culture medium. One image/well was acquired every day by using the Sartorius Incucyte Live-Cell Analysis System and evaluated through the Brightfield Spheroid Analysis Software Module. Only aggregates with areas larger than 400 μm^2 were considered for statistical analysis.

[5] = test system: immortalized murine microglia N9; assay: Immunomodulation in LPS-treated N9 microglia, Western blot of iNOS and TREM2; details: 2.5 and 5 μM; 100 ng/mL LPS, 24 h
Procedure: To gain a conclusive answer on the potential role of these kinase inhibitors in counteracting neuroinflammatory processes, after the verified induced astrocytic polarization, the ability of selected compounds to modulate inflammatory response was analyzed by favoring the immunomodulatory switch from neurotoxic M1 phenotype of microglia to phagocytic and neuroprotective M2 phenotype, evaluating inducible nitric oxide synthase (iNOS) and TREM2 as M1 and M2 markers (Figure ).
The microglial phenotype was evaluated through Western blot analysis of the pro-inflammatory iNOS and anti-inflammatory-TREM2 markers.

[6] = test system: neurospheres (NPCs from the subventricular zone); assay: Neurosphere differentiation, immunofluorescence of DCX, GFAP, OLIG2; format: cell-based, mice; details: 1 μM; 7 days
From the text: Lastly, we move forward to evaluate the neuromodulatory profile of selected compounds that involves the capability to polarize the spontaneous differentiation of neurospheres, which potentially can maturate in neurons or macroglia, such as astrocytes and oligodendrocytes. Modulating NPC differentiation is especially relevant under neurodegenerative conditions as it could offer an intriguing opportunity to achieve polyhedric therapeutic effects. Importantly, neuronal differentiation may help to counteract the progressive neuronal loss, while promoting oligodendrocyte phenotype could support remyelination and neuronal function and the astrocytic polarization may aid to foster a neuroprotective profile. Particularly, after 7 days of treatment at 1 μM, in the same experimental conditions previously reported, cells were fixed and stained with different antibody markers such as doublecortin (DCX) for the immature neurons, glial fibrillary acidic protein (GFAP) for astrocytes, and oligodendrocyte transcription factor 2 (OLIG2) for oligodendrocyte precursors for immunofluorescence analysis (Figure a). […] By driving the maturation of astrocytes, compounds 41 and 43 could exert neuroprotection through multiple mechanisms, including the secretion of neurotrophic factors, enhancement of antioxidant defenses, regulation of water balance, ion homeostasis, and glutamate buffering and recycling. Furthermore, astrocytes support the integrity of the blood–brain barrier (BBB) and aid in the refinement of neural networks via synaptic pruning, further reinforcing their role in preserving brain function and structure.
NSCs were initially obtained by SVZ microdissection of 6 months-old C57BL/6N wild-type male mice (Mus musculus) and routinely cultured in suspension in DMEM-F12 (Gibco; ThermoFisher Scientific, Waltham, MA, USA) supplemented with 2 mM glutamine, 10 μg/mL insulin from bovine pancreas (Sigma-Aldrich; St Louis, MO, USA), 20 ng/mL epidermal growth factor (EGF; PeproTech EC, London, UK), 20 ng/mL fibroblast growth factor-2 (FGF2; PeproTech), 1% N2 (ThermoFisher Scientific), 1% B27 (ThermoFisher Scientific), 10 units/mL penicillin, and 10 μg streptomycin.
To assess the effect of compounds of interest in NSCs differentiation, 30 spheres were plated on 13 mm glass coverslips, previously coated with Matrigel matrix (Corning; New York, USA), in complete DMEM F-12 medium, and treated with 1 μM of compounds of interest. After 7DIV, neurospheres were fixed for 20 min with 4% PFA in PBS 0.1% pH 7.4. Fixed neurospheres were permeabilized in 0.1% Triton/PBS and nonspecific sites were blocked for 1 h with 0.1% Triton/PBS and 5% normal goat serum (Sigma-Aldrich; St Louis, MO, USA). Cells were then incubated overnight at 4 °C with the following primary antibodies: Anti-Doublecortin DCX (Abcam, Cambridge, UK), GFAP (Dakopatts), OLIG2 (Santa Cruz Biotechnology), 1:500 dilution in 0.1% Triton/PBS with 2% normal goat serum. After 3 washes in 0.1% Triton/PBS, specific secondary antibodies were added for 2 h at RT in the dark: Donkey anti-Mouse IgG Alexafluor 555 (Abcam, Cambridge, UK), Goat anti-Rabbit IgG Alexafluor 555 (Abcam, Cambridge, UK), 1:1000 dilution in 0.1% Triton/PBS with 2% normal goat serum. Following 3 washes in 0.1% Triton/PBS, nuclei were stained with DAPI (2 μg/mL, Sigma-Aldrich) for 5 min. Glass coverslips were mounted by using Ultracruz Aqueous Mounting Medium with DAPI (Santa Cruz Biotechnology). Neurospheres confocal images were obtained with a Nikon EZ-C1 microscope (60× objective) and the z-stack function (1024 steps and 1 μm thickness layers; 40 total stacks). 3D image reconstruction was performed by using Fiji ImageJ2 software, z-project plugin, and selecting the sum stacks’ function. Fluorescence intensity index was estimated as the ratio of markers’ positive cells intensity/total cells fluorescence intensity stained with DAPI per ROI.

[7] = BBB permeability in hCMEC/D3 transwell model; details: human
Procedure: as §1, §2

| Molecule | Permeability coefficient Papp [1] | Neuroprotection on CGNs (cell viability after serum/potassium deprivation) [2] | Increase in registered cell viability in comparison to control [3] | Neurotoxicity on CGNs (cell viability compared to control) [3] | IC50 (FYNα) | Neurosphere dimension (brightfield object total area), maturation [4] | Neurosphere number (object count per image), neurogenesis [4] | TREM2 expression (M2 marker) vs LPS [5] | iNOS expression (M1 marker) vs LPS [5] | Differentiation toward oligodendrocytes (OLIG2) [6] | Papp A→B at 90 min, 100 μM [7] |
| --- | --- | --- | --- | --- | --- | --- | --- | --- | --- | --- | --- |
| inulin [reference compound] | 6.74± 1.7 10-6 cm/s |  |  |  |  |  |  |  |  |  |  |
| Br.Clc1cc(CNc2nc(-c3c[nH]c4ncccc34)cs2)ccn1 [Compound 28, N-((2-Chloropyridin-4-yl)methyl)-4-(1H-pyrrolo[2,3-b]pyridin-3-yl)thiazol-2-amine Hydrobromide] |  | mitigate the physiological senescence and mortality rate | amplified | not neurotoxic | 0.71 ± 0.09 µM | noticeable maturation at days 6 and 7 | pronounced neurogenesis | no significant variations | notably decreased the M1 marker at both tested concentrations | this effect was mitigated | 124 ± 11.3 nm/s |
